In brackets after ≈: the same amount, converted by molar mass.
Experiments:
[1] = molecular target: Histamine H3 receptor (Homo sapiens, UniProt Q9Y5N1); assay: Displacement of [3H]methyl- N-alpha methylhistamine dihydrochloride from human recombinant H3 receptor expressed in CHOK1 cells measured after 30 mins by liquid scintillation counter method; format: cell-based
[2] = molecular target: Histamine H3 receptor (Rattus norvegicus, UniProt Q9QYN8); assay: Displacement of [3H]methyl- N-alpha methylhistamine dihydrochloride from Sprague-Dawley rat cerebral cortex H3 receptor measured after 30 mins by scintillation counter method
Histamine H3 receptor (Rattus norvegicus, UniProt Q9QYN8), sequence (Q9QYN8 whole entry): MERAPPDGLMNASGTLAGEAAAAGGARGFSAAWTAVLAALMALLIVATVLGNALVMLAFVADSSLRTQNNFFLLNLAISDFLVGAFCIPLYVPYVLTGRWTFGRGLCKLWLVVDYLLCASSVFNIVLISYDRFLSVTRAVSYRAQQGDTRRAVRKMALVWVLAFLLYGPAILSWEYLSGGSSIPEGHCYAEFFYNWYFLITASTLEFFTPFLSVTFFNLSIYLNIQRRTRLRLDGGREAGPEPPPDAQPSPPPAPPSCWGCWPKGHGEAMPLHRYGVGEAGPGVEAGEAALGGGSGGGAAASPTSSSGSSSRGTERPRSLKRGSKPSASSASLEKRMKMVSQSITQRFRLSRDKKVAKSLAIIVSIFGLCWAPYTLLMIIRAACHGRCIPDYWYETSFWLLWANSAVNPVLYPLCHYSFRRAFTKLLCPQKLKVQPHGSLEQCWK

[3] = molecular target: Muscarinic acetylcholine receptor; assay: Displacement of [3H]quinuclidinyl benzilate from Wistar rat cortex muscarinic acetylcholine receptor by liquid scintillation counter method
[4] = Fraction of drug metabolized in human microsomes; format: ADME, Microsome; settings: read-out: Fm
[5] = Fraction of drug metabolized in rat microsomes; format: ADME, Microsome; settings: read-out: Fm
[6] = organism: Rattus norvegicus; assay: Selectivity index, ratio of Ki for Wistar rat cortex muscarinic acetylcholine receptor to Ki for Sprague-Dawley rat cerebral cortex H3 receptor
[7] = molecular target: Voltage-gated inwardly rectifying potassium channel KCNH2 (Homo sapiens, UniProt Q12809); assay: Inhibition of human ERG
Voltage-gated inwardly rectifying potassium channel KCNH2, sequence (Q12809 whole entry): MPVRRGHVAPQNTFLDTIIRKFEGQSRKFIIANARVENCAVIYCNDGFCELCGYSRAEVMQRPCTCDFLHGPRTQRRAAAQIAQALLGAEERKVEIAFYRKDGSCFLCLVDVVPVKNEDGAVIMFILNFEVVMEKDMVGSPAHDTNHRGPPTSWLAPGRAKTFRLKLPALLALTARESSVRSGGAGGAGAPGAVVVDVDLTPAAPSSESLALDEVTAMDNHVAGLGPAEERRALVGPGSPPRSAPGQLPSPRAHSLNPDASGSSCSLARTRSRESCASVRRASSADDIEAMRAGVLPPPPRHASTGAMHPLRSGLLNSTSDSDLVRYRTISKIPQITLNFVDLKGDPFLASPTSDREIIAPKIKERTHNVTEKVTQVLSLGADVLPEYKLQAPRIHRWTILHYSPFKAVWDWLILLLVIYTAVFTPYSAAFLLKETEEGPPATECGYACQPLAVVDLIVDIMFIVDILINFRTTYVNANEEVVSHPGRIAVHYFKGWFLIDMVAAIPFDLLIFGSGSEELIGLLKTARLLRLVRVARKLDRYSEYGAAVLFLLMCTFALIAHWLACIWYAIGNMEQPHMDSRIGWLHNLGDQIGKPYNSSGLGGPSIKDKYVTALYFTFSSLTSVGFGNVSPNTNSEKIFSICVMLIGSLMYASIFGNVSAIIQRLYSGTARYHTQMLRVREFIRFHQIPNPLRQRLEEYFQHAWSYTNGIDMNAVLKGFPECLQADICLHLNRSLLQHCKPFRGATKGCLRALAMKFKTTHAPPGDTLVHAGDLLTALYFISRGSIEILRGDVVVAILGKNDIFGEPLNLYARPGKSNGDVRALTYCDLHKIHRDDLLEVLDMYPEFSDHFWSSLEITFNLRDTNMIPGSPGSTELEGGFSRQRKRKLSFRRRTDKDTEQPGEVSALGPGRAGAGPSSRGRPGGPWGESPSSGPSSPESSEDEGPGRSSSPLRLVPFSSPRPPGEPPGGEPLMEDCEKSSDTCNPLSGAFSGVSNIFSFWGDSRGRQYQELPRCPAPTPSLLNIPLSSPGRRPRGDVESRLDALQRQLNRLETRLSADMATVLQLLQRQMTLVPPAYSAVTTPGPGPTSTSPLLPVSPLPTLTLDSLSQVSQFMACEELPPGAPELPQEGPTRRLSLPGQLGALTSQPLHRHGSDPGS

[8] = tested on: Rattus norvegicus; assay: In vivo antagonist activity at H3 receptor in po dosed Wistar rat assessed as inhibition of imetit induced dipsogenia preincubated for 30 mins followed by imetit administration at 3 mg/kg,sc; format: functional
[9] = Tmax in Wistar rat brain at 10 mg/kg, po measured after 5 hrs by HPLC-MS/MS analysis; format: ADME, organism-based
[10] = Ratio of AUC (0 to infinity) in Wistar rat brain to plasma at 10 mg/kg, po measured after 5 hrs by HPLC-MS/MS analysis; format: ADME, organism-based
[11] = tested on: Rattus norvegicus; assay: Cognitive enhancement in scopolamine-induced amnesia Wistar rat model assessed as increase in memory retrieval at 3 mg/kg, po with scopolamine treatment for 23 hrs followed by compound administration measured after 1 hr by water labyrinth relative to control; format: functional
[12] = Solubility of compound in DMSO; format: physicochemical
[13] = Kinetic solubility of compound; format: physicochemical; settings: read-out: Kinetic_solubility
[14] = Lipophilicity, logP of compound; format: physicochemical; settings: octanol/water
[15] = Partition coefficient, logD of compound at pH 7.4; format: physicochemical; settings: octanol/water
[16] = molecular target: Muscarinic acetylcholine receptor (Rattus norvegicus) (UniProt P08482+P08483+P08485+P08911+P10980); assay: Displacement of [3H]quinuclidinyl benzilate from Wistar rat cortex muscarinic acetylcholine receptor at 3 uM by liquid scintillation counter method relative to control
[17] = molecular target: Histamine H3 receptor (Rattus norvegicus) (UniProt Q9QYN8); assay: Displacement of [3H]methyl- N-alpha methylhistamine dihydrochloride from Sprague-Dawley rat cerebral cortex H3 receptor measured after 30 mins by scintillation counter method relative to control
Histamine H3 receptor (Rattus norvegicus), sequence (Q9QYN8 whole entry): as the sequence (Q9QYN8 whole entry) above

[18] = tested on: Rattus norvegicus; assay: In vivo antagonist activity at Wistar rat H3 receptor assessed as inhibition of imetit-induced dipsogenia at 30 mg/kg, po for 30 mins followed by imetit administration at 3 mg/kg, sc, relative to control; format: functional
[19] = tested on: Rattus norvegicus; assay: In vivo antagonist activity at H3 receptor in ip dosed Wistar rat assessed as inhibition of imetit induced dipsogenia preincubated for 30 mins followed by imetit administration at 3 mg/kg,sc; format: functional

Histamine H3 receptor (Homo sapiens, UniProt Q9Y5N1), sequence (Q9Y5N1 whole entry): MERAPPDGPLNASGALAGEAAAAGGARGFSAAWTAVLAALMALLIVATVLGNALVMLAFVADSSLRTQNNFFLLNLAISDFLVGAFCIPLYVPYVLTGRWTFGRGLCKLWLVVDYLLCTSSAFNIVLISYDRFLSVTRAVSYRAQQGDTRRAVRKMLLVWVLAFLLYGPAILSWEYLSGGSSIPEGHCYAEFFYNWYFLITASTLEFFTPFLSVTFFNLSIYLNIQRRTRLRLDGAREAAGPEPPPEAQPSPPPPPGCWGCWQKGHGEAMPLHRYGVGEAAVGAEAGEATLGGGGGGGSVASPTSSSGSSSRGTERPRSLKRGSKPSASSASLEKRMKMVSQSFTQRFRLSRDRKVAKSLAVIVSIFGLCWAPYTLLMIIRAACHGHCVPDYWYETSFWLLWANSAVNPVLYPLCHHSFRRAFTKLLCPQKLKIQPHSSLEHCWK

Compound	Ki [1] [nM]	Ki [2] [nM]	metabolised [4] [%]	metabolised [5] [%]	Activity [16] [%]	IC50 [7] [nM]	further results
CCNC(=O)[C@@H]1CC(=O)[C@@]2(C)CC[C@@H]3c4ccc(OCCCN5CCC[C@H]5C)cc4CC[C@H]3[C@H]12	43	–	–	–	–	–	–
CCNC(=O)[C@H]1CC(=O)[C@@]2(C)CC[C@@H]3c4ccc(OCCCN5CCC(F)CC5)cc4CC[C@H]3[C@H]12	530	–	–	–	–	–	–
C[C@H]1CCCN1CCCOc1ccc2c(c1)CC[C@H]1[C@@H]3[C@H](C(=O)N4CCCC4)CC(=O)[C@@]3(C)CC[C@H]21	30	9	75	85	16	80000	ED50 [8]: 0.6 mg/kg
CC(=O)N[C@@H]1CC(=O)[C@@]2(C)CC[C@@H]3c4ccc(OCCCN5CCC[C@H]5C)cc4CC[C@H]3[C@H]12	10	39	85	46	20	–	–
CCNC(=O)[C@H]1CC(=O)[C@@]2(C)CC[C@@H]3c4ccc(OCCCN5CCC(F)(F)CC5)cc4CC[C@H]3[C@H]12	1370	–	–	–	–	–	–
CCNC(=O)[C@@H]1CC(=O)[C@@]2(C)CC[C@@H]3c4ccc(OCCN5CCC[C@@H]5C)cc4CC[C@H]3[C@H]12	260	–	–	–	4	–	–
CCNC(=O)[C@H]1CC(=O)[C@@]2(C)CC[C@@H]3c4ccc(OCCCN5CC[C@@H](F)C5)cc4CC[C@H]3[C@H]12	230	–	–	–	–	–	–
C[C@@H]1CCCN1CCCOc1ccc2c(c1)CC[C@@H]1[C@@H]2CC[C@]2(C)[C@@H](N3CCCC3=O)CC[C@@H]12	–	135	–	–	51	–	–
CCNC(=O)[C@@H]1CC(=O)[C@@]2(C)CC[C@@H]3c4ccc(OCCCCN5CCC[C@@H]5C)cc4CC[C@H]3[C@H]12	234	–	–	–	17	–	–
CCNC(=O)[C@H]1CC(=O)[C@@]2(C)CC[C@@H]3c4ccc(OCCCN5CCC[C@@H]5C)cc4CC[C@H]3[C@H]12	21	–	–	–	–	–	–
N-ethyl-2-((8R,9S,13S,14S,15R,17S)-17-methoxy-13-methyl-3-(3-((R)-2-methylpyrrolidin-1-yl)propoxy)-7,8,9,11,12,13,14,15,16,17-decahydro-6H-cyclopenta[a]phenanthren-15-yl)acetamide	–	–	–	–	6	–	–
CCN(CC)C(=O)[C@@H]1CC(=O)[C@@]2(C)CC[C@@H]3c4ccc(OCCCN5CCC[C@@H]5C)cc4CC[C@H]3[C@H]12	34	–	–	–	–	–	inhibition [17]: 44%
C[C@]12CC[C@@H]3c4ccc(OCCCN5CCCC5)cc4CC[C@H]3[C@@H]1CC[C@@H]2N1CCCC1	–	–	–	–	–	7500	Ki [3]: 110 nM; inhibition (INH) [18]: 19%; ED50 [19]: 12 mg/kg

The next lines start with results.

Ki [1] [nM]	Ki [2] [nM]	metabolised [4] [%]	metabolised [5] [%]	Activity [16] [%]	Compound	IC50 [7] [nM]	further results
9	22	77	85	–	C[C@]12CC[C@@H]3c4ccc(OCCCN5CCCC5=O)cc4CC[C@H]3[C@@H]1CC[C@@H]2N1CCCC1	–	Ki [3]: 700 nM
2	18	–	–	–	C[C@@H]1CCCN1CCCOc1ccc2c(c1)CC[C@@H]1[C@@H]2CC[C@]2(C)[C@@H](C(=O)N3CCCC3)CC[C@@H]12	–	Ki [3]: 454 nM; Ratio Ki [6]: 25
3	9	99	99	–	CCNC(=O)[C@H]1CC(=O)[C@@]2(C)CC[C@@H]3c4ccc(OCCCN5CCC[C@H]5C)cc4CC[C@H]3[C@H]12	17500	Ki [3]: 4700 nM; ED50 [8]: 0.47 mg/kg; Tmax [9]: 1 h; Kp at 5 h [10]: 0.24; Activity [11]: 52.3%; solubility [12]: > 50000 µM; solubility kinetic [13]: 250 µM (≈ 117 µg/mL); logP [14]: 4.2; logD [15]: 1.7
5	19	48	50	–	C[C@@H]1CCCN1CCCOc1ccc2c(c1)CC[C@H]1[C@@H]3[C@@H](C(=O)NCC4CCC4)CC[C@@]3(C)CC[C@H]21	–	Ki [3]: 1708 nM
9	13	90	76	27	C[C@@H]1CCCN1CCCOc1ccc2c(c1)CC[C@H]1[C@@H]3[C@@H](C(=O)NCC4CC4)CC[C@@]3(C)CC[C@H]21	4100	–
9	28	96	96	7	CCNC(=O)[C@H]1C[C@H](OC)[C@@]2(C)CC[C@@H]3c4ccc(OCCCN5CCC[C@H]5C)cc4CC[C@H]3[C@H]12	11400	ED50 [8]: 2.5 mg/kg
9	24	62	66	24	CCNC(=O)[C@H]1CC[C@@]2(C)CC[C@@H]3c4ccc(OCCCN5CCC[C@H]5C)cc4CC[C@H]3[C@H]12	4100	ED50 [8]: 2.26 to 2.3 mg/kg

— ChEMBL document CHEMBL4396962, “Discovery of novel steroidal histamine H3 receptor antagonists/inverse agonists. Part 2. Versatile steroidal carboxamide derivatives” (Bioorg Med Chem Lett, 2019)
